# Measured values published in patent US20220323594A1, “LIPIDATED CATIONIC PEPTIDE-PEG COMPOSITIONS FOR NUCLEIC ACID DELIVERY” (NUTCRACKER THERAPEUTICS, INC., priority 2019, published 2022).
# Experiments:
# [1] = Dynamic light scattering (DLS) of mRNA/peptoid formulations: particle size and polydispersity; type: physicochemical; conditions: Fluc mRNA/peptoid formulation; for Size PDI: size polydispersity index by DLS, 5:1 mass ratio; for Size (nm): volume average particle size/diameter by DLS, 5:1 mass ratio peptoid:cargo
# Experimental: (§1) To prepare nanoparticle formulations, the amino lipidated peptoid is mixed by pipetting with nucleic acid at a mass ratio between approximately 1:1 (peptoid:cargo) and 20:1. Prior to formulation, amino lipidated peptoid and nucleic acid cargo were diluted in ethanol and acidic buffer (PBS adjusted to pH 5.5 with 0.1 M HCl) respectively to a volume ratio of 1:3 and to target a final cargo concentration of approximately 0.05 mg/mL to 0.2 mg/mL. The exemplary amino lipidated cationic peptoids described in Example 2 were combined with firefly luciferase (Fluc) mRNA to form nanoparticle compositions to be evaluated for therapeutic and/or prophylactic purposes in vitro or in vivo. The formulations were prepared according to the protocol of Example 3 and mixed by simple pipetting. The mRNA/peptoid formulation at a 5:1 mass ratio of peptoid:cargo were evaluated by dynamic light scattering (DLS) in order to determine the volume average particle size/diameter (nm) of the mRNA/peptoid complex and the size polydispersity index (PDI) within the formulation. The percentage of mRNA encapsulation for each formulation of the exemplary compounds were determined by fluorescence of the Qubit RNA HS (Invitrogen) dye before and after lysis of particles by Triton X-100.
# [2] = mRNA encapsulation by fluorescence of Qubit RNA HS dye before and after lysis with Triton X-100; type: physicochemical; conditions: percentage of mRNA encapsulation; Fluc mRNA/peptoid formulation, 5:1 mass ratio
# Experimental: as §1, with “The” for “To prepare nanoparticle formulations, the amino lipidated peptoid is mixed by pipetting with nucleic acid at a mass ratio between approximately 1:1 (peptoid:cargo) and 20:1. Prior to formulation, amino lipidated peptoid and nucleic acid cargo were diluted in ethanol and acidic buffer (PBS adjusted to pH 5.5 with 0.1 M HCl) respectively to a volume ratio of 1:3 and to target a final cargo concentration of approximately 0.05 mg/mL to 0.2 mg/mL. The”
# HeLa cells [3] = experiment: In vitro expression of firefly luciferase (Fluc) after treatment with Fluc mRNA/amino lipidated peptoid formulations, no PEG or 2% DMG-PEG2000; type: cell-based
# Experimental: The efficacy of mRNA/amino lipidated peptoid formulations was evaluated in vitro based on their ability to deliver the firefly luciferase (Fluc) reporter gene to cultured cells. Amino lipidated peptoids were combined with Fluc mRNA at a 5:1 w/w ratio, and the resulting particles were added to cultured HeLa cells at a dose of 100 ng/well (in 100 μL total volume). The resulting luciferase expression (RLU) was measured by a luminescence plate reader after 6 hours and 24 hours of treatment. […] In addition to evaluating nanoparticle complexes formed between mRNA cargos and amino lipidated peptoids alone, multicomponent formulations containing a small amount of PEG-lipid DMG-PEG2000 were also tested for in vitro Fluc mRNA delivery. In these formulations, DMG-PEG2000 was pre-mixed with candidate peptoid at an overall 2% incorporation (w/w), while maintaining the same 5:1 mass ratio of peptoid:mRNA used previously.
# HeLa cells [4] = experiment: In vitro Fluc expression with variable peptoid:mRNA mass ratio, 2% DMG-PEG2000; type: cell-based; conditions: 24 h; for Observed Luciferase Expression (RLU) for Given Formulation Mass Ratio 2:1: 2% (w/w) DMG-PEG2000, peptoid:mRNA 2:1; for Observed Luciferase Expression (RLU) for Given Formulation Mass Ratio 3.5:1: 2% (w/w) DMG-PEG2000, peptoid:mRNA 3.5:1; for Observed Luciferase Expression (RLU) for Given Formulation Mass Ratio 5:1: 2% (w/w) DMG-PEG2000, peptoid:mRNA 5:1; for Observed Luciferase Expression (RLU) for Given Formulation Mass Ratio 7.5:1: 2% (w/w) DMG-PEG2000, peptoid:mRNA 7.5:1
# Experimental: The charge ratio dependence of amino lipidated peptoid delivery vehicles was evaluated by formulating particles between Fluc mRNA and delivery vehicles at varying mass ratios. Formulations were varied between 2:1 and 7.5:1 peptoid:mRNA (w/w) ratios (2:1, 3.5:1, 5:1 and 7.5:1). In addition, the role of DMG-PEG2000 was also explored with the mass ratios, either by excluding DMG-PEG2000 or incorporating DMG-PEG2000 at 2% (w/w) relative to amino lipidated peptoid. Fluc expression from these formulations was measured in HeLa cells following treatment for 24 hours. […] FIGS. 6B and 6C show plots of the average bioluminescence (RLU) for HeLa cells treated with the formulations of exemplary amino lipidated cationic peptoid compounds 1-36, all formulated with 2% w/w DMG-PEG2000.
# [5] = MTT viability assay after treatment with Fluc mRNA/amino lipidated peptoid formulations; type: cell-based; conditions: human, HeLa cells
# Experimental: Cellular viability was measured following treatment with Fluc mRNA/amino lipidated peptoid formulations by a traditional MTT viability assay. […] In this assay, cells were first treated with peptoid formulations at a final mRNA concentration of 100 ng/well for 8 hours. Cells were then left to grow for 48 hours, after which time they were exposed to 1.5 mg/mL 3-(4,5-dimethylthiazol-2-yl)-2,5-diphenyltetrazolium bromide (MTT) for 2 hours, then lysed using a solubilizing solution of 10% Triton-X 100 in acidic isopropanol (0.1N HCl). The signal corresponding to reduced formazan was normalized to untreated cells to provide a relative viability of each treated condition. […] In general, nearly all conditions maintained at least 80% viability with the only exceptions being formulations of compound 5, 34, and 35.
# [6] = no PEG, peptoid:Fluc mRNA 5:1 w/w, 100 ng/well, 6 h of treatment
# [7] = no PEG, peptoid:Fluc mRNA 5:1 w/w, 100 ng/well, 24 h of treatment
# [8] = with 2% (w/w) DMG-PEG2000, peptoid:mRNA 5:1, 6 h after treatment
# [9] = with 2% (w/w) DMG-PEG2000, peptoid:mRNA 5:1, 24 h after treatment
Structure (SMILES),Size PDI [1],Size (nm) [1] [nm],% Encapsulation [2] [%],Luciferase Expression (RLU) 6 h (HeLa cells [3]; [6]) [RLU],Luciferase Expression (RLU) 24 h (HeLa cells [3]; [7]) [RLU],Luciferase Expression (RLU) 6 h (HeLa cells [3]; [8]) [RLU],Luciferase Expression (RLU) 24 h (HeLa cells [3]; [9]) [RLU],Observed Luciferase Expression (RLU) for Given Formulation Mass Ratio 2:1 (HeLa cells [4]) [RLU],Observed Luciferase Expression (RLU) for Given Formulation Mass Ratio 3.5:1 (HeLa cells [4]) [RLU],Observed Luciferase Expression (RLU) for Given Formulation Mass Ratio 5:1 (HeLa cells [4]) [RLU],Observed Luciferase Expression (RLU) for Given Formulation Mass Ratio 7.5:1 (HeLa cells [4]) [RLU],"viability at 8 h, 500 ng/well ([5]; Relative Viability (%) 2% PEG) [%]","viability at 8 h, 500 ng/well ([5]; Relative Viability (%) No PEG) [%]"
CCCCCCCCCCN(CC(N)=O)C(=O)CN(CCCCCCCCCC)C(=O)CN(CCCCCCCCCC)C(=O)CN(CCCCCCCCCC)C(=O)CN(CCc1ccccc1)C(=O)CN(CCc1ccccc1)C(=O)CN(CC1CCNCC1)C(=O)CN(CCc1ccccc1)C(=O)CN(CCc1ccccc1)C(=O)CN(CC1CCNCC1)C(=O)CN(CCc1ccccc1)C(=O)CN(CCc1ccccc1)C(=O)CN(CC1CCNCC1)C(=O)CN(CCc1ccccc1)C(=O)CN(CCc1ccccc1)C(=O)CNCC1CCNCC1 [Compound 32],0.274,247.5,50.9,4.25E+02,2.00E+03,4.82E+02,3.40E+02,1.82E+02,3.09E+02,3.77E+03,3.37E+03,102,90.7
CCCCCCCCCCCCN(CC(N)=O)C(=O)CN(CCCCCCCCCCCC)C(=O)CN(CCc1ccccc1)C(=O)CN(CCc1ccccc1)C(=O)CN(CCN)C(=O)CN(CCc1ccccc1)C(=O)CN(CCc1ccccc1)C(=O)CN(CCN)C(=O)CN(CCc1ccccc1)C(=O)CN(CCc1ccccc1)C(=O)CNCCN [Compound 3],0.247,255.3,95.9,2.27E+02,2.99E+02,3.14E+02,4.68E+02,4.42E+03,2.56E+03,4.53E+03,2.69E+03,95.3,91.2
CCCCCCCCCCN(CC(N)=O)C(=O)CN(CCCCCCCCCC)C(=O)CN(CCc1ccccc1)C(=O)CN(CCc1ccccc1)C(=O)CN(CCN)C(=O)CN(CCc1ccccc1)C(=O)CN(CCc1ccccc1)C(=O)CN(CCN)C(=O)CN(CCc1ccccc1)C(=O)CN(CCc1ccccc1)C(=O)CN(CCN)C(=O)CN(CCc1ccccc1)C(=O)CN(CCc1ccccc1)C(=O)CNCCN [Compound 11],0.038,354.9,87.8,1.15E+03,1.22E+03,3.90E+02,5.23E+02,2.79E+04,3.14E+04,4.48E+04,4.36E+03,104,104

# Now from value to compound, other results behind:
Size PDI [1],Size (nm) [1] [nm],% Encapsulation [2] [%],Structure (SMILES),Luciferase Expression (RLU) 6 h (HeLa cells [3]; [6]) [RLU],Luciferase Expression (RLU) 24 h (HeLa cells [3]; [7]) [RLU],Luciferase Expression (RLU) 6 h (HeLa cells [3]; [8]) [RLU],Luciferase Expression (RLU) 24 h (HeLa cells [3]; [9]) [RLU],Observed Luciferase Expression (RLU) for Given Formulation Mass Ratio 2:1 (HeLa cells [4]) [RLU],Observed Luciferase Expression (RLU) for Given Formulation Mass Ratio 3.5:1 (HeLa cells [4]) [RLU],Observed Luciferase Expression (RLU) for Given Formulation Mass Ratio 5:1 (HeLa cells [4]) [RLU],Observed Luciferase Expression (RLU) for Given Formulation Mass Ratio 7.5:1 (HeLa cells [4]) [RLU],"viability at 8 h, 500 ng/well ([5]; Relative Viability (%) 2% PEG) [%]","viability at 8 h, 500 ng/well ([5]; Relative Viability (%) No PEG) [%]"
0.762,593,88.5,CCCCCCCCCCNCC(=O)N(CCN)CC(=O)N(CCc1ccccc1)CC(=O)N(CCc1ccccc1)CC(=O)N(CCN)CC(=O)N(CCc1ccccc1)CC(=O)N(CCc1ccccc1)CC(=O)N(CCN)CC(=O)N(CCc1ccccc1)CC(=O)N(CCc1ccccc1)CC(=O)N(CCCCCCCCCC)CC(N)=O [Compound 18],5.74E+02,8.49E+02,8.50E+01,1.22E+02,1.53E+03,3.00E+03,9.99E+02,2.41E+01,89.3,86.1
1,1064,76.9,CCCCCCCCCCN(CC(N)=O)C(=O)CN(CCCCCCCCCC)C(=O)CN(CCN)C(=O)CN(CCN)C(=O)CN(CCN)C(=O)CN(CCN)C(=O)CNCCN [Compound 15],3.93E+01,1.90E+01,5.33E+00,5.33E+00,8.85E+01,3.62E+01,2.01E+01,6.70E+00,91.9,91.2
1,1486,85.4,CCCCCCCCCCN(CC(N)=O)C(=O)CN(CCCCCCCCCC)C(=O)CN(CCN)C(=O)CN(CCN)C(=O)CN(CCN)C(=O)CN(CCN)C(=O)CN(CCN)C(=O)CN(CCN)C(=O)CN(CCN)C(=O)CN(CCN)C(=O)CNCCN [Compound 16],7.33E+00,1.67E+01,2.63E+01,5.00E+00,1.01E+02,4.16E+01,2.55E+01,1.47E+01,90.8,89.4
